Assay results published in ChEMBL document CHEMBL3994623, “The synthesis and antistaphylococcal activity of 9, 13-disubstituted berberine derivatives” (Eur J Med Chem, 2017).
In brackets after ≈: the same amount, converted by molar mass.

Columns and labels:
Staphylococcus aureus [1] = test: Antistaphylococcal activity against Staphylococcus aureus Newman after 18 hrs by two fold serial dilution method; assay type: functional
[2] = Cytotoxicity against HAF assessed as decrease in cell viability after 24 hrs by MTS assay; assay type: cell-based; conditions: Homo sapiens
Staphylococcus aureus [3] = test: Antistaphylococcal activity against linezolid-resistant Staphylococcus aureus NRS-271 containing phage type E-MRSA after 18 hrs by two fold serial dilution method; assay type: functional; conditions: NRS-271, 18 h
Staphylococcus aureus [4] = test: Antistaphylococcal activity against gentamicin-resistant Staphylococcus aureus NRS-108 after 18 hrs by two fold serial dilution method; assay type: functional; conditions: NRS-108, 18 h
Staphylococcus aureus [5] = test: Antistaphylococcal activity against oxacillin/tetracycline-resistant Staphylococcus aureus NRS-100 after 18 hrs by two fold serial dilution method; assay type: functional; conditions: NRS-100, 18 h
Staphylococcus aureus [6] = test: Antistaphylococcal activity against erythromycin-resistant Staphylococcus aureus NRS-70 after 18 hrs by two fold serial dilution method; assay type: functional; conditions: NRS-70, 18 h
Staphylococcus aureus [7] = test: Antistaphylococcal activity against aminoglycosides/tetracycline-resistant Staphylococcus aureus NRS-1 after 18 hrs by two fold serial dilution method; assay type: functional; conditions: NRS-1, 18 h
Staphylococcus aureus [8] = test: Potency index, ratio of totarol MIC to test compound MIC for aminoglycosides/tetracycline-resistant Staphylococcus aureus NRS-1; assay type: functional
Staphylococcus aureus [9] = test: Potency index, ratio of totarol MIC to test compound MIC for oxacillin/tetracycline-resistant Staphylococcus aureus NRS-100; assay type: functional
[10] = Cytotoxicity against HAF assessed as effect on cell morphology at […] ug/ml after 24 hrs by hematoxylin-eosin staining-based contrast microscopic method; conditions: human
Staphylococcus aureus [11] = test: Potency index, ratio of totarol MIC to test compound MIC for gentamicin-resistant Staphylococcus aureus NRS-108
Staphylococcus aureus [12] = test: Potency index, ratio of totarol MIC to test compound MIC for erythromycin-resistant Staphylococcus aureus NRS-70; assay type: functional
Staphylococcus aureus [13] = test: Potency index, ratio of totarol MIC to test compound MIC for linezolid-resistant Staphylococcus aureus NRS-271 containing phage type E-MRSA; assay type: functional
[14] = Cytotoxicity against HAF assessed as effect on cell morphology at 12.5 ug/ml after 24 hrs by hematoxylin-eosin staining-based contrast microscopic method; conditions: human

Compound | MIC (Staphylococcus aureus [1]) | IC50 [2] | MIC (Staphylococcus aureus [3]) | MIC (Staphylococcus aureus [4]) | MIC (Staphylococcus aureus [5]) | MIC (Staphylococcus aureus [6]) | MIC (Staphylococcus aureus [7]) | further results
CCCCCNc1c(OC)ccc2c(Cc3ccccn3)c3[n+](cc12)CCc1cc2c(cc1-3)OCO2.[Br-] | 12.5 µg/mL | – | – | – | – | – | – | –
COc1ccc2c(Cc3ccc(C)cc3)c3[n+](cc2c1OC)CCc1cc2c(cc1-3)OCO2.[Br-] | 6.25 µg/mL | – | – | – | – | – | – | –
CCCCCNc1c(OC)ccc2c(Cc3ccc(C)c(C)c3)c3[n+](cc12)CCc1cc2c(cc1-3)OCO2.[Br-] | 1.25 µg/mL | 12.5 µg/mL | 1.56 µg/mL | 1.56 µg/mL | 1.56 µg/mL | 1.56 µg/mL | 3.13 µg/mL | –
CCCCNc1c(OC)ccc2c(Cc3ccc(F)cc3)c3[n+](cc12)CCc1cc2c(cc1-3)OCO2.[Br-] | 2.5 µg/mL | – | 3.13 µg/mL | 3.13 µg/mL | 6.25 µg/mL | 3.13 µg/mL | 6.25 µg/mL | –
CCCCCNc1c(OC)ccc2c(Cc3ccc(C(F)(F)F)cc3)c3[n+](cc12)CCc1cc2c(cc1-3)OCO2.[Br-] | 1.25 µg/mL | 11.4 µg/mL | 1.56 µg/mL | 1.56 µg/mL | 1.56 µg/mL | 1.56 µg/mL | 1.56 µg/mL | Ratio (Staphylococcus aureus [8]): 1 - 4; Ratio (Staphylococcus aureus [9]): 1 - 4; Activity [10]: Non-Toxic; Ratio (Staphylococcus aureus [11]): 1 - 4; Ratio (Staphylococcus aureus [12]): 1 - 4; Ratio (Staphylococcus aureus [13]): 1 - 4; Activity [14]: Toxic
CCCCCCNc1c(OC)ccc2c(Cc3ccc(C)cc3)c3[n+](cc12)CCc1cc2c(cc1-3)OCO2.[Br-] | 1.56 µg/mL | 12.8 µg/mL | 1.56 µg/mL | 1.56 µg/mL | 1.56 µg/mL | 1.56 µg/mL | 1.56 µg/mL | Ratio (Staphylococcus aureus [8]): 1 - 4; Ratio (Staphylococcus aureus [9]): 1 - 4; Activity [10]: Non-Toxic; Ratio (Staphylococcus aureus [11]): 1 - 4; Ratio (Staphylococcus aureus [12]): 1 - 4; Ratio (Staphylococcus aureus [13]): 1 - 4; Activity [14]: Toxic
COc1ccc2c(Cc3ccc(C)cc3)c3[n+](cc2c1NCCCc1ccccc1)CCc1cc2c(cc1-3)OCO2.[Br-] | 3.13 µg/mL | – | – | – | – | – | – | –
CCCCNc1c(OC)ccc2c(Cc3ccc(C)cc3)c3[n+](cc12)CCc1cc2c(cc1-3)OCO2.[Br-] | 1.56 µg/mL | – | 1.56 µg/mL | 3.13 µg/mL | 1.56 µg/mL | 1.56 µg/mL | 1.56 µg/mL | –
CCCCNc1c(OC)ccc2c(Cc3ccc(OC)cc3)c3[n+](cc12)CCc1cc2c(cc1-3)OCO2.[Br-] | 2.5 µg/mL | – | 6.25 µg/mL | 3.13 µg/mL | 6.25 µg/mL | 3.13 µg/mL | 6.25 µg/mL | –
CCCCCNc1c(OC)ccc2c(CCCN3CCOCC3)c3[n+](cc12)CCc1cc2c(cc1-3)OCO2.[I-] | > 25 µg/mL | – | – | – | – | – | – | –
CCCCCNc1c(OC)ccc2c(CC(=O)OCC)c3[n+](cc12)CCc1cc2c(cc1-3)OCO2.[Br-] | 12.5 µg/mL | – | – | – | – | – | – | –
CCCCCNc1c(OC)ccc2c(Cc3ccc(C)cc3)c3[n+](cc12)CCc1cc2c(cc1-3)OCO2.[Br-] | 0.78 µg/mL | 12.5 µg/mL | 1.56 µg/mL | 1.56 µg/mL | 0.78 µg/mL | 1.56 µg/mL | 1.56 µg/mL | Ratio (Staphylococcus aureus [8]): 1 - 4; Ratio (Staphylococcus aureus [9]): 1 - 4; Activity [10]: Non-Toxic; Ratio (Staphylococcus aureus [11]): 1 - 4; Ratio (Staphylococcus aureus [12]): 1 - 4; Ratio (Staphylococcus aureus [13]): 1 - 4; Activity [14]: Toxic
CCCCCNc1c(OC)ccc2c(Cc3ccc(OC)cc3)c3[n+](cc12)CCc1cc2c(cc1-3)OCO2.[Br-] | 1.25 µg/mL | 13.8 µg/mL | 1.56 µg/mL | 1.56 µg/mL | 3.13 µg/mL | 1.56 µg/mL | 1.56 µg/mL | –
CCCCCNc1c(OC)ccc2c(Cc3cccs3)c3[n+](cc12)CCc1cc2c(cc1-3)OCO2.[Br-] | 3.13 µg/mL | – | – | – | – | – | – | –
CCCCCNc1c(OC)ccc2c(Cc3ccc(O)cc3)c3[n+](cc12)CCc1cc2c(cc1-3)OCO2.[Br-] | 2.5 µg/mL | > 20 µg/mL | 3.13 µg/mL | 3.13 µg/mL | 3.13 µg/mL | 1.56 µg/mL | 6.25 µg/mL | Activity [10]: Non-Toxic; Activity [14]: Toxic
CCCCCNc1c(OC)ccc2cc3[n+](cc12)CCc1cc2c(cc1-3)OCO2.[Cl-] | 3.13 µg/mL | – | – | – | – | – | – | –

Compound | MIC (Staphylococcus aureus [1]) | IC50 [2] | MIC (Staphylococcus aureus [3]) | MIC (Staphylococcus aureus [4]) | MIC (Staphylococcus aureus [5]) | MIC (Staphylococcus aureus [6]) | MIC (Staphylococcus aureus [7]) | further results
CCCCNc1c(OC)ccc2c(Cc3ccccc3)c3[n+](cc12)CCc1cc2c(cc1-3)OCO2.[Br-] | 3.13 µg/mL | > 20 µg/mL | – | – | – | – | – | –
CCCCCCNc1c(OC)ccc2c(Cc3ccccc3)c3[n+](cc12)CCc1cc2c(cc1-3)OCO2.[Br-] | 2.5 µg/mL | – | 3.13 µg/mL | 3.13 µg/mL | 3.13 µg/mL | 1.56 µg/mL | 1.56 µg/mL | –
CCCCCNc1c(OC)ccc2c(Cc3cccc(C)c3)c3[n+](cc12)CCc1cc2c(cc1-3)OCO2.[Br-] | 1.25 µg/mL | 12.7 µg/mL | 1.56 µg/mL | 1.56 µg/mL | 3.13 µg/mL | 1.56 µg/mL | 3.13 µg/mL | –
CCCCCCNc1c(OC)ccc2c(Cc3ccc(F)cc3)c3[n+](cc12)CCc1cc2c(cc1-3)OCO2.[Br-] | 1.56 µg/mL | – | 3.13 µg/mL | 3.13 µg/mL | 6.25 µg/mL | 3.13 µg/mL | 3.13 µg/mL | –
CCCCCNc1c(OC)ccc2c(CCCN3CCCC3)c3[n+](cc12)CCc1cc2c(cc1-3)OCO2.[I-] | > 25 µg/mL | – | – | – | – | – | – | –
CCCCCNc1c(OC)ccc2c(Cc3ccc(F)cc3)c3[n+](cc12)CCc1cc2c(cc1-3)OCO2.[Br-] | 1.25 µg/mL | 12.7 µg/mL | 1.56 µg/mL | 1.56 µg/mL | 3.13 µg/mL | 1.56 µg/mL | 3.13 µg/mL | –
CCCCCNc1c(OC)ccc2c(CC(=O)O)c3[n+](cc12)CCc1cc2c(cc1-3)OCO2.[Br-] | 25 µg/mL | – | – | – | – | – | – | –
COc1ccc2c(Cc3ccc(C)cc3)c3[n+](cc2c1NCCCO)CCc1cc2c(cc1-3)OCO2.[Br-] | 6.25 µg/mL | – | – | – | – | – | – | –
CCCCCCNc1c(OC)ccc2c(Cc3ccc(OC)cc3)c3[n+](cc12)CCc1cc2c(cc1-3)OCO2.[Br-] | 2.5 µg/mL | – | 6.25 µg/mL | 3.13 µg/mL | 3.13 µg/mL | 3.13 µg/mL | 6.25 µg/mL | –
CCCCCNc1c(OC)ccc2c(CCCN3CCCCC3)c3[n+](cc12)CCc1cc2c(cc1-3)OCO2.[I-] | > 25 µg/mL | – | – | – | – | – | – | –
CCCCCNc1c(OC)ccc2c(Cc3ccccc3)c3[n+](cc12)CCc1cc2c(cc1-3)OCO2.[Br-] | 1.56 µg/mL | 15.8 µg/mL | 1.56 µg/mL | 1.56 µg/mL | 1.56 µg/mL | 1.56 µg/mL | 3.13 µg/mL | –
CCCCCNc1c(OC)ccc2c(Cc3ccccc3C)c3[n+](cc12)CCc1cc2c(cc1-3)OCO2.[Br-] | 1.25 µg/mL | 13 µg/mL | 3.13 µg/mL | 1.56 µg/mL | 3.13 µg/mL | 1.56 µg/mL | 3.13 µg/mL | –
COc1ccc2c(Cc3ccccc3)c3[n+](cc2c1OC)CCc1cc2c(cc1-3)OCO2.[Br-] | 6.25 µg/mL | – | – | – | – | – | – | –
COc1ccc2cc3[n+](cc2c1OC)CCc1cc2c(cc1-3)OCO2 [BERBERINE] | > 25 µg/mL | – | – | – | – | – | – | –
CN[C@H](CC(C)C)C(=O)N[C@H]1C(=O)N[C@@H](CC(N)=O)C(=O)N[C@H]2C(=O)N[C@H]3C(=O)N[C@H](C(=O)N[C@H](C(=O)O)c4cc(O)cc(O)c4-c4cc3ccc4O)[C@H](O)c3ccc(c(Cl)c3)Oc3cc2cc(c3O[C@@H]2O[C@H](CO)[C@@H](O)[C@H](O)[C@H]2O[C@H]2C[C@](C)(N)[C@H](O)[C@H](C)O2)Oc2ccc(cc2Cl)[C@H]1O [VANCOMYCIN] | 0.78 µg/mL (≈ 0.538 µM) | – | 0.39 µg/mL (≈ 0.269 µM) | 0.39 µg/mL (≈ 0.269 µM) | 0.78 µg/mL (≈ 0.538 µM) | 0.39 µg/mL (≈ 0.269 µM) | 1.56 µg/mL (≈ 1.08 µM) | –
